Experimental data as given in patent US9187472B2 (AbbVie Inc., priority 2012, dated 2015).

Columns and labels:
[1] = biological target: NAMPT (human, recombinant, C-terminally His-tagged) (Homo sapiens, UniProt P43490); test: Time-Resolved Fluorescence Resonance Energy Transfer (TR-FRET) Binding Assay of NAMPT; conditions: without substrates; 6.8 nM NAMPT, 200 nM probe, 3 hours equilibration
Procedure, shortened: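 In a displacement format, the nicotinamide-site tracer at 200 nM competed with test compound for 6.8 nM enzyme detected via 1 nM terbium anti-His antibody; incubation lasted 3 hours at room temperature in 50 mM HEPES pH 7.5, 100 mM NaCl. Normalized 520/495 nm emission ratios gave IC50 values.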

PC3 cells = test: NAMPT Cell Proliferation Assay; assay type: cell-based; conditions: Homo sapiens, PC-3, 120 h, 5 days incubation, cell viability by Cell Titer Glo
Procedure, shortened: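 Following overnight attachment in RPMI with 10% heat-inactivated FBS, PC3 cells at 500 per well receive compounds spanning 10 μM down to 1×10^−5 μM. Growth is assessed by luminescent viability read after 5 days.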

NAMPT = NAMPT (Homo sapiens, UniProt P43490); test: TR-FRET Binding Assay of NAMPT with PRPP; conditions: with 200 μM PRPP and 2.5 mM ATP; 2 nM NAMPT, 2 nM probe, 16 hours equilibration
Chain of NAMPT (P43490 whole entry): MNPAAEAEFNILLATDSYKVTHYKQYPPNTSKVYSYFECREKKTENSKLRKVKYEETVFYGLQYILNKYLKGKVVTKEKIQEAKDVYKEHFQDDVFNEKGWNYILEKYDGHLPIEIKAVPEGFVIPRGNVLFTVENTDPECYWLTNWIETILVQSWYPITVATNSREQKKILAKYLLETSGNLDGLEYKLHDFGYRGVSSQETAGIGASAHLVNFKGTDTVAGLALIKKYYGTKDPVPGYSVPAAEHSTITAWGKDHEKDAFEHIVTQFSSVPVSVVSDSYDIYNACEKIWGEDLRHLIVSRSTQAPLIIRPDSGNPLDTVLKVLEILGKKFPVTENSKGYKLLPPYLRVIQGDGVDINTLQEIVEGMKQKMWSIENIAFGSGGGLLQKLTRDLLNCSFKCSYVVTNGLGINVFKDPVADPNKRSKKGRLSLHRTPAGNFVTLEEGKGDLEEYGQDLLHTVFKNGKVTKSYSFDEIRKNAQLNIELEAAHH
Procedure, shortened: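 Substrate-containing variant: 200 μM PRPP plus 2.5 mM ATP are added to 2 nM NAMPT and 2 nM probe, with a 16-hour incubation ahead of TR-FRET reading.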

Chain of NAMPT (human, recombinant, C-terminally His-tagged) (P43490 whole entry): as above

| Compound | IC50 [1] [nM] | IC50 (PC3 cells) [nM] | IC50 (NAMPT) [nM] |
| --- | --- | --- | --- |
| CC(C)(C)OC(=O)N1CC[C@@H](Oc2ccc(C(=O)NCc3ccn4ccnc4c3)cc2)C1 [Example 436, tert-butyl (3R)-3-{4-[(imidazo[1,2-a]pyridin-7-ylmethyl)carbamoyl]phenoxy}pyrrolidine-1-carboxylate] | 1590 | 762 | 0.416 |
| CC(C)C(=O)N1CCC(Oc2ccc(NC(=O)NCc3ccn4ccnc4c3)cc2)CC1 [Example 442, 1-(imidazo[1,2-a]pyridin-7-ylmethyl)-3-(4-{[1-(2-methylpropanoyl)piperidin-4-yl]oxy}phenyl)urea] | 301 | 70.7 | 0.2 |
| O=C(NCc1ccn2ccnc2c1)Nc1ccc(OC2CCN(C(=O)CC3CC3)CC2)cc1 [Example 444, 1-(4-{[1-(cyclopropylacetyl)piperidin-4-yl]oxy}phenyl)-3-(imidazo[1,2-a]pyridin-7-ylmethyl)urea] | 156 | 69.9 | 0.244 |
| CC(C)OCC(=O)N1CCC(Oc2ccc(NC(=O)NCc3ccn4ccnc4c3)cc2)CC1 [Example 446, 1-(imidazo[1,2-a]pyridin-7-ylmethyl)-3-[4-({1-[(propan-2-yloxy)acetyl]piperidin-4-yl}oxy)phenyl]urea] | 388 | 61.2 | 0.253 |
| CC(C)(O)C(=O)N1CCC(Oc2ccc(NC(=O)NCc3ccn4ccnc4c3)cc2)CC1 [Example 447, 1-(4-{[1-(2-hydroxy-2-methylpropanoyl)piperidin-4-yl]oxy}phenyl)-3-(imidazo[1,2-a]pyridin-7-ylmethyl)urea] | 261 | 12.5 | 0.232 |
| O=C(NCc1ccn2ccnc2c1)Nc1ccc(OC2CCN(C(=O)C3CCOCC3)CC2)cc1 [Example 450, 1-(imidazo[1,2-a]pyridin-7-ylmethyl)-3-(4-{[1-(tetrahydro-2H-pyran-4-ylcarbonyl)piperidin-4-yl]oxy}phenyl)urea] | 422 | 70.1 | 0.244 |
| CC(C)C(=O)N1CC(c2ccc(NC(=O)NCc3ccn4ccnc4c3)cc2)C1 [Example 452, 1-(imidazo[1,2-a]pyridin-7-ylmethyl)-3-{4-[1-(2-methylpropanoyl)azetidin-3-yl]phenyl}urea] | 293 | 59.2 | 0.285 |
| CC[C@H](C)C(=O)N1CC(c2ccc(NC(=O)NCc3ccn4ccnc4c3)cc2)C1 [Example 453, 1-(imidazo[1,2-a]pyridin-7-ylmethyl)-3-(4-{1-[(2S)-2-methylbutanoyl]azetidin-3-yl}phenyl)urea] | 152 | 9.21 | 0.258 |
| O=C(NCc1ccn2ccnc2c1)Nc1ccc(C2CN(C(=O)c3ccccc3)C2)cc1 [Example 455, 1-[4-(1-benzoylazetidin-3-yl)phenyl]-3-(imidazo[1,2-a]pyridin-7-ylmethyl)urea] | 16.7 | 3.5 | 0.194 |
| O=C(NCc1ccn2ccnc2c1)Nc1ccc(C2CN(C(=O)[C@H]3CCCO3)C2)cc1 [Example 458, 1-(imidazo[1,2-a]pyridin-7-ylmethyl)-3-(4-{1-[(2R)-tetrahydrofuran-2-ylcarbonyl]azetidin-3-yl}phenyl)urea] | 940 | 183 | 0.382 |
| O=C(NCc1ccn2ccnc2c1)Nc1ccc(C2CN(C(=O)[C@@H]3CCCO3)C2)cc1 [Example 459] | 381 | 77.7 | 0.41 |

Further compounds by falling IC50 [1], results first:

| IC50 [1] [nM] | IC50 (PC3 cells) [nM] | IC50 (NAMPT) [nM] | Compound |
| --- | --- | --- | --- |
| 1140 | 194 | 0.487 | CC(C)(O)C(=O)N1CC(c2ccc(NC(=O)NCc3ccn4ccnc4c3)cc2)C1 [Example 457, 1-{4-[1-(2-hydroxy-2-methylpropanoyl)azetidin-3-yl]phenyl}-3-(imidazo[1,2-a]pyridin-7-ylmethyl)urea] |
| 569 | 50.9 | 0.307 | O=C(NCc1ccn2ccnc2c1)Nc1ccc(C2CN(C(=O)C3CCOCC3)C2)cc1 [Example 460, 1-(imidazo[1,2-a]pyridin-7-ylmethyl)-3-{4-[1-(tetrahydro-2H-pyran-4-ylcarbonyl)azetidin-3-yl]phenyl}urea] |
| 453 | 37.5 | 0.641 | O=C(NCc1ccn2ccnc2c1)Nc1ccc(C2=CCN(C(=O)CC3CCOCC3)CC2)cc1F [Example 439, 1-{2-fluoro-4-[1-(tetrahydro-2H-pyran-4-ylacetyl)-1,2,3,6-tetrahydropyridin-4-yl]phenyl}-3-(imidazo[1,2-a]pyridin-7-ylmethyl)urea] |
| 405 | 42.2 | 0.34 | O=C(NCc1ccn2ccnc2c1)Nc1ccc(C2CN(C(=O)CC3CC3)C2)cc1 [Example 454, 1-{4-[1-(cyclopropylacetyl)azetidin-3-yl]phenyl}-3-(imidazo[1,2-a]pyridin-7-ylmethyl)urea] |
| 400 | 17.3 | 0.373 | O=C(NCc1ccn2ccnc2c1)Nc1ccc(OC2CCN(C(=O)CC3CCOCC3)CC2)cc1 [Example 451, 1-(imidazo[1,2-a]pyridin-7-ylmethyl)-3-(4-{[1-(tetrahydro-2H-pyran-4-ylacetyl)piperidin-4-yl]oxy}phenyl)urea] |
| 389 | 49.6 | 0.169 | CC(C)OCC(=O)N1CC(c2ccc(NC(=O)NCc3ccn4ccnc4c3)cc2)C1 [Example 456, 1-(imidazo[1,2-a]pyridin-7-ylmethyl)-3-(4-{1-[(propan-2-yloxy)acetyl]azetidin-3-yl}phenyl)urea] |
| 338 | 7.2 | 0.324 | O=C(NCc1ccn2ccnc2c1)c1ccc(C2CCN(C(=O)C3CCC(F)(F)CC3)CC2)cc1 [Example 441, 4-{1-[(4,4-difluorocyclohexyl)carbonyl]piperidin-4-yl}-N-(imidazo[1,2-a]pyridin-7-ylmethyl)benzamide] |
| 304 | 36.3 | 0.33 | O=C(NCc1ccn2ccnc2c1)Nc1ccc(OC2CN(C(=O)[C@@H]3CCCO3)C2)cc1 [Example 432, 1-(imidazo[1,2-a]pyridin-7-ylmethyl)-3-[4-({1-[(2S)-tetrahydrofuran2-ylcarbonyl]azetidin-3-yl}oxy)phenyl]urea] |
| 256 | 23.6 | 0.169 | O=C(NCc1ccn2ccnc2c1)Nc1ccc(OC2CCN(C(=O)[C@@H]3CCCO3)CC2)cc1 [Example 449, 1-(imidazo[1,2-a]pyridin-7-ylmethyl)-3-[4-({1-[(2S)-tetrahydrofuran-2-ylcarbonyl]piperidin-4-yl}oxy)phenyl]urea] |
| 200 | 64.4 | 0.248 | O=C(NCc1ccn2ccnc2c1)Nc1ccc(OC2CN(C(=O)C3CCOCC3)C2)cc1 [Example 433, 1-(imidazo[1,2-a]pyridin-7-ylmethyl)-3-(4-{[1-(tetrahydro-2H-pyran-4-ylcarbonyl)azetidin-3-yl]oxy}phenyl)urea] |
| 175 | 67.8 | 0.176 | O=C(NCc1ccn2ccnc2c1)Nc1ccc(OC2CCN(C(=O)[C@H]3CCCO3)CC2)cc1 [Example 448, 1-(imidazo[1,2-a]pyridin-7-ylmethyl)-3-[4-({1-[(2R)-tetrahydrofuran-2-ylcarbonyl]piperidin-4-yl}oxy)phenyl]urea] |
| 163 | 20.4 | 0.191 | O=C(NCc1ccn2ccnc2c1)Nc1ccc(OC2CN(C(=O)CC3CCOCC3)C2)cc1 [Example 435, 1-(imidazo[1,2-a]pyridin-7-ylmethyl)-3-(4-{[1-(tetrahydro-2H-pyran-4-ylacetyl)azetidin-3-yl]oxy}phenyl)urea] |
| 145 | 42.5 | 0.427 | O=C(NCc1ccn2ccnc2c1)Nc1ccc(C2=CCN(C(=O)c3ccccc3)CC2)cc1F [Example 438, 1-[4-(1-benzoyl-1,2,3,6-tetrahydropyridin-4-yl)-2-fluorophenyl]-3-(imidazo[1,2-a]pyridin-7-ylmethyl)urea] |
| 138 | 8.96 | 0.274 | CC[C@H](C)C(=O)N1CCC(Oc2ccc(NC(=O)NCc3ccn4ccnc4c3)cc2)CC1 [Example 443, 1-(imidazo[1,2-a]pyridin-7-ylmethyl)-3-[4-({1-[(2S)-2-methylbutanoyl]piperidin-4-yl}oxy)phenyl]urea] |
| 110 | 22.9 | 0.212 | O=C(NCc1ccn2ccnc2c1)Nc1ccc(OC2CCN(C(=O)c3ccccc3)CC2)cc1 [Example 445, 1-{4-[(1-benzoylpiperidin-4-yl)oxy]phenyl}-3-(imidazo[1,2-a]pyridin-7-ylmethyl)urea] |
| 102 | 5.59 | 0.169 | O=C(NCc1ccn2ccnc2c1)Nc1ccc(OC2CN(C(=O)C3COCCO3)C2)cc1 (stereo not drawn) [Example 434, 1-(4-{[1-(1,4-dioxan-2-ylcarbonyl)azetidin-3-yl]oxy}phenyl)-3-(imidazo[1,2-a]pyridin-7-ylmethyl)urea] |
| 29.1 | 7.02 | 0.169 | O=C(NCc1ccn2ccnc2c1)c1ccc(C2CCN(C(=O)c3ccccc3)CC2)cc1 [Example 437, 4-(1-benzoylpiperidin-4-yl)-N-(imidazo[1,2-a]pyridin-7-ylmethyl)benzamide] |
